Consider three compounds from US12479847B2 (DANA-FARBER CANCER INSTITUTE, INC., priority 2019, dated 2025).

Like-named read-outs stand apart in the source and are kept apart here.

Holding throughout (experiment): KINOMEscan (ScanMAX) kinase profiling
What all share (assay type): binding

Experiment [1] concerns the target T1, panel of 468 kinases (Homo sapiens, UniProt O00506).
T1 construct: purchased KINOMEscan (ScanMAX) service
The settings on record: YSK1; 1 μM; read-out: % control.

The target in experiment [2] is T2, panel of 468 kinases (Homo sapiens, UniProt O43318).
T2 construct: purchased KINOMEscan (ScanMAX) service
T2 sequence (O43318 1-606): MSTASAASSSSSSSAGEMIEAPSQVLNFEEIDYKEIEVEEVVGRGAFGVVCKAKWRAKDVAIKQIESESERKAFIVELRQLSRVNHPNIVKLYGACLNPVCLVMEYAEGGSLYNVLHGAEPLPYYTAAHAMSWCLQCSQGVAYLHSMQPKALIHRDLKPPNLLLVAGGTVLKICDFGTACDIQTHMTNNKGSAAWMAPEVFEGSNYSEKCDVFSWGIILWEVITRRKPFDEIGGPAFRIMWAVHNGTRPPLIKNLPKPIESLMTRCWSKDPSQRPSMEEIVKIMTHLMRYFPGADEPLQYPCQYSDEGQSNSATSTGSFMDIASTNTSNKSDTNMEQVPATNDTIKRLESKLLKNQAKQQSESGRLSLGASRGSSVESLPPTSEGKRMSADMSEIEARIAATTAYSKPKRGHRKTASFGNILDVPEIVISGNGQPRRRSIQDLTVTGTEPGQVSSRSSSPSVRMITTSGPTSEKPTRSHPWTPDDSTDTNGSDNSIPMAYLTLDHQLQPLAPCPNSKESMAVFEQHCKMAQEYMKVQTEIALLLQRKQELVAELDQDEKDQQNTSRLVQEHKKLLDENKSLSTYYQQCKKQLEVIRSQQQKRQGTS
Particulars: TAK1; 1 μM; read-out: % control.

Experiment [3] addresses T3, panel of 468 kinases (Homo sapiens, UniProt P23458).
T3 construct: purchased KINOMEscan (ScanMAX) service
The settings on record: 1 μM, read-out: % control.

In experiment [4] the target is T4, panel of 468 kinases (Homo sapiens, UniProt P42336, H1047Y).
T4 construct: purchased KINOMEscan (ScanMAX) service
The settings on record: PIK3CA(H1047Y); 1 μM; read-out: % control.

The target of experiment [5] is T5, panel of 468 kinases (Homo sapiens, UniProt P78362).
T5 construct: purchased KINOMEscan (ScanMAX) service
The settings on record: SRPK2; 1 μM; read-out: % control.

The target of experiment [6] is T6, panel of 468 kinases (Homo sapiens, UniProt Q13237).
T6 construct: purchased KINOMEscan (ScanMAX) service
T6 sequence (Q13237 1-762): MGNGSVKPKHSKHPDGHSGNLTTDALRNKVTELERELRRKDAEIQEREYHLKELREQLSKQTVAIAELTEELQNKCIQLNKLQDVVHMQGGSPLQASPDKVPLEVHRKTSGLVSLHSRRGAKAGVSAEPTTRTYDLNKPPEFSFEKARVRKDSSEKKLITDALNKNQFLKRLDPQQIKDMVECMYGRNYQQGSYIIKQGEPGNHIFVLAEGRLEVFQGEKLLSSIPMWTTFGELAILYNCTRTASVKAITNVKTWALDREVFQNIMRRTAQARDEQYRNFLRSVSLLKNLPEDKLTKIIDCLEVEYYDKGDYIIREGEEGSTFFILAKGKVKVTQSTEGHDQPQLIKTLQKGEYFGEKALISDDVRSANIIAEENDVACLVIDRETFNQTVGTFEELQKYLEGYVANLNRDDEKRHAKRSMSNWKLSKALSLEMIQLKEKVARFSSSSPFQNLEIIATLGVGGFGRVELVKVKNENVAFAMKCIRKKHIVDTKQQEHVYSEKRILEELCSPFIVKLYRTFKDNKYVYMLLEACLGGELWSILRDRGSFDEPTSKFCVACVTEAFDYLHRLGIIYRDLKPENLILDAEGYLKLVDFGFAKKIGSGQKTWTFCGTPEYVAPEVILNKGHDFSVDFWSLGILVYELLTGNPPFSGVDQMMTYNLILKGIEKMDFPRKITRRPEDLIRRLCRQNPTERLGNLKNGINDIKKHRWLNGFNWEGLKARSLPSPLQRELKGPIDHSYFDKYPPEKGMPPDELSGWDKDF
The settings on record: PRKG2; 1 μM; read-out: % control.

The target of experiment [7] is T7, panel of 468 kinases (Homo sapiens, UniProt Q13627).
T7 construct: purchased KINOMEscan (ScanMAX) service
Particulars: DYRK1A; 1 μM; read-out: % control.

Experiment [8] deals with T8, panel of 468 kinases (Homo sapiens, UniProt Q5VT25).
T8 construct: purchased KINOMEscan (ScanMAX) service
Particulars: MRCKA; 1 μM; read-out: % control.

Experiment [9] has as its target T9, panel of 468 kinases (Homo sapiens, UniProt Q8N5S9).
T9 construct: purchased KINOMEscan (ScanMAX) service
The settings on record: CAMKK1; 1 μM; read-out: % control.

Experiment [10] concerns the target T10, panel of 468 kinases (Homo sapiens, UniProt Q9BQI3).
T10 construct: purchased KINOMEscan (ScanMAX) service
The settings on record: EIF2AK1; 1 μM; read-out: % control.

Experiment [11] addresses T11, panel of 468 kinases (Homo sapiens, UniProt Q9H4A3).
T11 construct: purchased KINOMEscan (ScanMAX) service
The settings on record: WNK1; 1 μM; read-out: % control.

Experiment [12] concerns the target T12, panel of 468 kinases (Homo sapiens, UniProt Q9HBY8).
T12 construct: purchased KINOMEscan (ScanMAX) service
T12 sequence (Q9HBY8 1-367): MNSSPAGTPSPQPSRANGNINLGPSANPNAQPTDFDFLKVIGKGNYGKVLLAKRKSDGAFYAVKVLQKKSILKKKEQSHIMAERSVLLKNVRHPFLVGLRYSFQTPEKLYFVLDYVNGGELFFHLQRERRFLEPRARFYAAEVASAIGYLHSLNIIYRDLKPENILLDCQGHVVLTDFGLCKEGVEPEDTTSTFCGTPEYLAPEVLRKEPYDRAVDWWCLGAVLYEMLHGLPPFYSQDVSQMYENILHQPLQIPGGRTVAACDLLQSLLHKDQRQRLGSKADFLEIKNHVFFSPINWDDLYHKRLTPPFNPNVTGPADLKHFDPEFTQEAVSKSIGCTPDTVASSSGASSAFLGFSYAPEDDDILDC
The settings on record: SGK2; 1 μM; read-out: % control.

T11 sequence (Q9H4A3 whole entry): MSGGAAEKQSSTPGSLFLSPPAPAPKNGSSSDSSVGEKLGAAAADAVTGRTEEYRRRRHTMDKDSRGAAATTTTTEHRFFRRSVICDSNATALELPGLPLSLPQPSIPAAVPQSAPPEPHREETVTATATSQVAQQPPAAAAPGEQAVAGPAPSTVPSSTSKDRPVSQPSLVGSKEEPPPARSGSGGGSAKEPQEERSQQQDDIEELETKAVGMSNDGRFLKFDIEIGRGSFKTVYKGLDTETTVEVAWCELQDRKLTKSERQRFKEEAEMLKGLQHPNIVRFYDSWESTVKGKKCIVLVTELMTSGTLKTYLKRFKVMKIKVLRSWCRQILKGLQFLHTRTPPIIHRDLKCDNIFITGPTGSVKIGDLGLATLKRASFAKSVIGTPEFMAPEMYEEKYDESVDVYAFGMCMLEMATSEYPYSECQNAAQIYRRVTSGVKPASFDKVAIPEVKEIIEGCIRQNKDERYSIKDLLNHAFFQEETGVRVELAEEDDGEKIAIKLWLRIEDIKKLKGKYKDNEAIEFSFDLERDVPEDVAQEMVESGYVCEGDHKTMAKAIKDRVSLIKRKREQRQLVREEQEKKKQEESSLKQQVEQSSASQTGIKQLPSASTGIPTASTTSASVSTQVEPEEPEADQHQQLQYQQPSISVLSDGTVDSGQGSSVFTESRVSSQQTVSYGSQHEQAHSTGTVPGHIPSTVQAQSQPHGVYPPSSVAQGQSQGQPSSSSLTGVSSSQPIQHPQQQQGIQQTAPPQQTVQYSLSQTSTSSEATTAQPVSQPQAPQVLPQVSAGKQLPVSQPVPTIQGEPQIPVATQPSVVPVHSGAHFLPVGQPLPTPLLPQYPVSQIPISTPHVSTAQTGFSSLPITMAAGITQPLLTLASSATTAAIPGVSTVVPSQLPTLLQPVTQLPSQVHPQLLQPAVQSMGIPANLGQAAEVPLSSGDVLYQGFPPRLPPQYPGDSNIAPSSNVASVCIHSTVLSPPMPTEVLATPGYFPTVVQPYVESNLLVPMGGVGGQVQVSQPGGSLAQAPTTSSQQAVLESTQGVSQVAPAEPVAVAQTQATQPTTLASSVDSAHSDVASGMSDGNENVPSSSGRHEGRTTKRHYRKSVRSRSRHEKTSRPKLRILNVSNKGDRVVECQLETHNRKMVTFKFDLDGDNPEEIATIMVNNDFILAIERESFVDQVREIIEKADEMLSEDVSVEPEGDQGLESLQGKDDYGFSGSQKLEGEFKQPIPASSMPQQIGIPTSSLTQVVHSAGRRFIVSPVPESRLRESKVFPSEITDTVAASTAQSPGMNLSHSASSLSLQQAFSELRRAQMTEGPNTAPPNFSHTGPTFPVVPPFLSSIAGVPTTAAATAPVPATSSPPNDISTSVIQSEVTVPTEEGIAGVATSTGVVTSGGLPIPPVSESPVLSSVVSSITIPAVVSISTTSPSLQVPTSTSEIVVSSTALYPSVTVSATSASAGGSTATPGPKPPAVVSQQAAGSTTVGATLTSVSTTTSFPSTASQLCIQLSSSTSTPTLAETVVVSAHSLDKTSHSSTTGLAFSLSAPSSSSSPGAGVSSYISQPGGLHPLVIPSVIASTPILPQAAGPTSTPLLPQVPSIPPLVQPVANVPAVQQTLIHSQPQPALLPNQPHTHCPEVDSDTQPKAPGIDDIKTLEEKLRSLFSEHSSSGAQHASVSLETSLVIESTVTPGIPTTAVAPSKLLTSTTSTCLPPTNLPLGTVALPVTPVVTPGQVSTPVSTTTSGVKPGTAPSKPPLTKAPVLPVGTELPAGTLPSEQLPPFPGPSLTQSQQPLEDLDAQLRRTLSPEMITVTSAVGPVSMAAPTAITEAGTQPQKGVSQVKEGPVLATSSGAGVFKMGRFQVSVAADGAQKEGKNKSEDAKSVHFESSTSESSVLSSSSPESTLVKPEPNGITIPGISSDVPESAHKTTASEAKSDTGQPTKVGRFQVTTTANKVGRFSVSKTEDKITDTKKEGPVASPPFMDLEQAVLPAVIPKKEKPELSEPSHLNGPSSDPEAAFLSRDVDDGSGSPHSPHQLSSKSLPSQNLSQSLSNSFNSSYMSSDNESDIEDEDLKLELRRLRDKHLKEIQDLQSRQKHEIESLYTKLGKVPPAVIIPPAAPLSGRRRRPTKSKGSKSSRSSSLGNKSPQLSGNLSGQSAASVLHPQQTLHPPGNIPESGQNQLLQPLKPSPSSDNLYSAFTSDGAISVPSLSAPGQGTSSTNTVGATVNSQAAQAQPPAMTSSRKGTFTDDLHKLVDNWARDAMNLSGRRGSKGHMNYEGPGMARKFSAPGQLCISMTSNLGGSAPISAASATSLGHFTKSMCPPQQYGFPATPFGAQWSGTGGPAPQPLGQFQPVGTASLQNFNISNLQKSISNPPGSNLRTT
T5 sequence (P78362 whole entry): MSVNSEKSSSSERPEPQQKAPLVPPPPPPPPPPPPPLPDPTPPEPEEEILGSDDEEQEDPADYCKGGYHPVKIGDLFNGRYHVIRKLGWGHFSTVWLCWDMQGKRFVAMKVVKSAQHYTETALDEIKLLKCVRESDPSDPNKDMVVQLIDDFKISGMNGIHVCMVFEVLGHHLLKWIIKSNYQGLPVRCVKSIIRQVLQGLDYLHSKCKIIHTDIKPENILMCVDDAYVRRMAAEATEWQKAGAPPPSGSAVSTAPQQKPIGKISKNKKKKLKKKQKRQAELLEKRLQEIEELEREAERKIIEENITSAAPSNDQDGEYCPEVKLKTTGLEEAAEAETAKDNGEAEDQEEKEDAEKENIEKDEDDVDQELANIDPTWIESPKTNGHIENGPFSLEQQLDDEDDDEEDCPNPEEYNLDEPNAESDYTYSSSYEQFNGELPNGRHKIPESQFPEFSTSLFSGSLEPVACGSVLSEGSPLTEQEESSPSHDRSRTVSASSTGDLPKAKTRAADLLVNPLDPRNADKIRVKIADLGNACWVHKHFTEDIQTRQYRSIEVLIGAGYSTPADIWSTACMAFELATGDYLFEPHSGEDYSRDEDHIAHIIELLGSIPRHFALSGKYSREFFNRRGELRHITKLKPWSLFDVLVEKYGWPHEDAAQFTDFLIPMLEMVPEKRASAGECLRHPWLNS
T8 sequence (Q5VT25 whole entry): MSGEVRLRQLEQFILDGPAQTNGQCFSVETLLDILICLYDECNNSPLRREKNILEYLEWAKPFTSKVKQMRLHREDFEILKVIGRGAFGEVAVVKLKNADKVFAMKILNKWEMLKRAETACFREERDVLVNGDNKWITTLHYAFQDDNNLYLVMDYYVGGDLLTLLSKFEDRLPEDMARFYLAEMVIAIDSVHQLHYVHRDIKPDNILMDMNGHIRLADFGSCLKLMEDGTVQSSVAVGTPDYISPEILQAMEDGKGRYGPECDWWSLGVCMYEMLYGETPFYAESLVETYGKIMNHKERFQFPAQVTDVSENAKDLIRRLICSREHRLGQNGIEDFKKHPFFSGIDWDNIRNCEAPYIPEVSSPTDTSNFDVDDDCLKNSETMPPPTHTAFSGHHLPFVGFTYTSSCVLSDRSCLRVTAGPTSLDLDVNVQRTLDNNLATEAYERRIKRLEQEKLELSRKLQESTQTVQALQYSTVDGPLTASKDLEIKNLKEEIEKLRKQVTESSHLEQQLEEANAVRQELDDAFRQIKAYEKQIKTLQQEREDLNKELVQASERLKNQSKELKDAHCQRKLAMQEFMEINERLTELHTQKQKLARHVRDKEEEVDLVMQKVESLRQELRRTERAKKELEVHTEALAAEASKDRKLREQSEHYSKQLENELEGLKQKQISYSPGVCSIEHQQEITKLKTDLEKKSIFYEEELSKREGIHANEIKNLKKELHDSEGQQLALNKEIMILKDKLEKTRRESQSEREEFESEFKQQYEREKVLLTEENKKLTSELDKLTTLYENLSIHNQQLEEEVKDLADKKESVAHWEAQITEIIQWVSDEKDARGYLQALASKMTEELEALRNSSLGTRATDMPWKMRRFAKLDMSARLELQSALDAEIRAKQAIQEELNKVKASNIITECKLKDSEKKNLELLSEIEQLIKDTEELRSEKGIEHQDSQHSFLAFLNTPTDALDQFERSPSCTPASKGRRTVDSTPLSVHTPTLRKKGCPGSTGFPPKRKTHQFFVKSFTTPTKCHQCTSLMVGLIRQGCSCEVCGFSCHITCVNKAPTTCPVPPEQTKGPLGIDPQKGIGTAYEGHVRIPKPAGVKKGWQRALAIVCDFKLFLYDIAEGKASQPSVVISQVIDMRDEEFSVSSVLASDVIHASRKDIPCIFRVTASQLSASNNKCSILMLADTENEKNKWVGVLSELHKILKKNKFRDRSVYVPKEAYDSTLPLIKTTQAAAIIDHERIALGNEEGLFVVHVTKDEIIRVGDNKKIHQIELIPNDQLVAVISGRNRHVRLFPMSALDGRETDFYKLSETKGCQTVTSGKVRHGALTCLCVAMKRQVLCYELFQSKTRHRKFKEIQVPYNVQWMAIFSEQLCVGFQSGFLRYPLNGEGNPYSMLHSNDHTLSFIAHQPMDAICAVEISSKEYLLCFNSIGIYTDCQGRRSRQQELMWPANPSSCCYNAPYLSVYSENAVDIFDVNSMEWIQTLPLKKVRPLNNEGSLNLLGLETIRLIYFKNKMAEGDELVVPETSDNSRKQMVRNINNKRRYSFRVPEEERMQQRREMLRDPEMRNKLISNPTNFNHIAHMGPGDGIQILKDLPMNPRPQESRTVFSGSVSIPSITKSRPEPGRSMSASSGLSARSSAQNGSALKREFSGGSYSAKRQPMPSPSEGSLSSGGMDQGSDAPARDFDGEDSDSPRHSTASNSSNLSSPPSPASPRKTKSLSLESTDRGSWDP

Take `CNc1nc(Nc2ccc(S(=O)(=O)N3CCC(N4CCOCC4)CC3)cc2OC)nc2[nH]cc(Cl)c12` [Compound 12, 5-chloro-N2-(2-methoxy-4-((4-morpholinopiperidin-1-yl)sulfonyl)phenyl)-N4-methyl-7H-pyrrolo[2,3-d]pyrimidine-2,4-diamine]: the remaining binding at 1 µM in experiment [1] came out at 100%; in experiment [2], 100%; in experiment [3] (JAK1(JH1domain-catalytic)), 100%; in [3] (JAK1(JH2domain-pseudokinase)) it was 73%; in experiment [4], 64%; in [5] it was 100%. The remaining binding at 1 µM came to 100% in experiment [6]; 14% in experiment [7]; 100% in experiment [8]; 100% in experiment [9]; 100% in experiment [10]; 100% in [11]. Further, the remaining binding at 1 µM in experiment [12] was determined as 95%.
Take `CNc1nc(Nc2ccc(P3(=O)CCN(C4CCOCC4)CC3)cc2OC)nc2[nH]cc(Cl)c12` [Compound 77, 4-(4-((5-chloro-4-(methylamino)-7H-pyrrolo[2,3-d]pyrimidin-2-yl)amino)-3-methoxyphenyl)-1-(tetrahydro-2H-pyran-4-yl)-1,4-azaphosphinane 4-oxide]: the remaining binding at 1 µM is 100% in experiment [1]; 84% in experiment [2]; 100% in [3] (JAK1(JH1domain-catalytic)); 34% in experiment [3] (JAK1(JH2domain-pseudokinase)); 73% in experiment [4]; 84% in experiment [5]. In addition, the remaining binding at 1 µM in experiment [6] came to 100%; in experiment [7], 4.7%; in experiment [8], 92%; in experiment [9], 83%; in [10], 81%; in [11], 91%. Further, in experiment [12], the remaining binding at 1 µM was found to be 87%.
For `CNc1nc(Nc2ccc(C(=O)N3CCC(N4CCOCC4)CC3)c3c2OCO3)nc2[nH]cc(Cl)c12` [Compound 75, (7-((5-chloro-4-(methylamino)-7H-pyrrolo[2,3-d]pyrimidin-2-yl)amino)benzo[d][1,3]dioxol-4-yl)(4-morpholinopiperidin-1-yl)methanone], the remaining binding at 1 µM in [1] worked out at 100%; in [2] it was 29%; in experiment [3] (JAK1(JH1domain-catalytic)), 100%; in experiment [3] (JAK1(JH2domain-pseudokinase)), 64%; in experiment [4], 68%; in [5], 95%. Besides, the remaining binding at 1 µM in [6] amounted to 100%; in experiment [7], 8.9%; in experiment [8], 100%; in [9] it was 95%; in experiment [10], 62%; in experiment [11], 100%. Also, the remaining binding at 1 µM in [12] came to 37%.
